By AUC is commonly meant the area under the concentration-time curve, a measure of exposure. By Cmax is commonly meant the highest concentration seen after dosing. The term clearance denotes the rate of elimination divided by the concentration.

Series [1] is described as follows: Monkey PK experiment (plasma concentration by LC-MS/MS). The format is in vivo. To be noted: male cynomolgus monkey, 1 mg/kg intravenous injection, single dose, fasted. On the procedure: Male Cynomolgus monkey, normal grade, 3 monkeys each group (N=3)
The compound is weighed and dissolved in normal saline to prepare a 0.5 mg/mL clear solution for intravenous administration.
On the day of the experiment, the animals were administered according to the scheme in the table below. At each time point after administration, approximately 1 mL of blood was collected from the forearm vein and placed in heparin sodium anticoagulation tubes. Blood samples were placed on ice after collection, and the plasma was separated by centrifugation within 1 hour (centrifugation conditions: 2200 g, 10 minutes, 2-8° C.). The plasma samples were stored in a refrigerator at −80° C. until analysis.
The compound concentration in cynomolgus monkey plasma was determined by the following method: • Instruments and equipment: LC-MS/MS-19 (TQ5500, AB SCIEX, USA). • Internal standard: warfarin. • Chromatographic column: ACQUITY UPLC BEH C18, model 1.7 um 2.1*50 mm, purchased from Shenzhen Novah Chemical Technology Co., Ltd.; • Flow rate: 0.60 ml/min. • Column temperature: 40° C. • Mobile phase A: 0.1% formic acid in water. • Mobile phase B: 0.1% formic acid in acetonitrile.
Take 30 μL of the plasma sample prepared from item “2” , add 300 μL MeOH containing 100 ng/mL of internal standard to precipitate protein. The mixture was vortexed for 1 minute and centrifuged at 18000 g for 7 minutes. The supernatant was transferred to a 96-well plate. Inject 4 μL of supernatant into LC-MS/MS for analysis.
Pharmacokinetic parameters were calculated by using Phoenix WinNonlin7.0 software according to blood concentration data of different time points.

The subject of a further series is fibrinolysis. To be noted: cited from earlier work.

In the case of `Cl.O=C(O)c1ccc2c(n1)CCNC2` [Example 1, 5,6,7,8-tetrahydro-1,6-naphthyridine-2-carboxylic acid hydrochloride], in series [1], the AUC is 4110 ng·h/mL, the highest level (Cmax) was 10600 ng/mL and the clearance was 4 mL/min/kg.
For `NC[C@H]1CC[C@H](C(=O)O)CC1` [tranexamic acid, trans-4-aminomethyl-cyclohexane-carboxylic acid], in the series on fibrinolysis, the “anti-fibrinolytic activity relative to EACA” value was “about 10 times”.

The values above are taken from US20240124443A1, “PLASMIN INHIBITOR, PREPARATION METHOD THEREFOR, AND APPLICATION THEREOF” (SCINNOHUB PHARMACEUTICAL CO., LTD, priority 2021, published 2024).
